System: CNCM I-2546
Test: oligonucleotide array analysis of IFN-α modulated gene expression
Type: cell-based, human
Description: All these cell lines were cultured in RPMI medium supplemented with 10% FCS, glutamine (2 mM), sodium pyruvate (1 mM), non-essential amino acids and HEPES buffer (10 mM) (all from GIBCO Life Sciences, Paisley, UK). When confluent, the cells were passaged by trypsinization.
Cultured melanoma cells were harvested by scraping and total cellular RNA was extracted. 10 μg from each sample were used directly as templates for cDNA synthesis using a commercial kit (Roche Molecular Biochemicals, Rotkreuz, Switzerland). The T7 promoter sequence incorporated into the cDNA synthesis primer allowed template amplification and biotin labeling by in vitro transcription using a commercial kit (Affymetrix, Santa Clara, Calif.). After alkaline heat fragmentation […] was hybridised to the array (Affymetrix, Santa Clara, Calif.) and all subsequent steps were performed following standard procedures as supplied with the arrays. Raw data were collected with a confocal laser scanner (Hewlett Packard, Palo Alto, Calif.) using GeneChip software v3.1 (Affymetrix, Santa Clara, Calif.).
Raw data were normalized based on the total chip signal obtained upon hybridisation of ME15 cell line cDNA. This array was selected because: i) the 5′/3′ intensity ratio of control genes was smaller than 3; ii)>25% of the genes are called “present” by Genechip; iii) the image appearance is homogeneous with low background and no sign of mechanical chip damage.
The normalized average difference (nAD) between the signals of the perfect and of the mismatch probesets for each gene was used as the expression level of a given gene. At least one nAD value in a pairwise comparison of data has to exceed 50 to be included. Based on nAD, change factors related to IFN-α exposure were also calculated. Negative nAD values were set to 20 in order to avoid the calculation of artificially high modifications. In order to exclude artefacts, only genes with robust change factors, greater than 2-fold, were included in the analysis. […] Genes were clustered according to their mode of regulation.
Total cellular RNA was extracted from the sensitive and resistant melanoma cell lines identified above, reverse transcribed and processed for hybridization to an oligonucleotide array (Hu6800FL, PN 900183) containing probe sets derived from 7000 full-length human genes. Expression levels for each gene were calculated as normalized average difference (nAD, see materials and methods).
Patterns of genes expressed in IFN-α sensitive and resistant melanoma cell lines were investigated upon 48 hour culture in the presence of IFN-α. CNCM I-2546 and CNCM I-2545 were studied in detail.
In Table 2 below, CNCM I-2546 and CNCM I-2545 cultured for 48 hours in the absence or in the presence of 100 U/ml IFN-α were used to assay cytokine modulated gene expression as matched with data obtained in fibrosarcoma cells. This analysis yielded six clusters of genes. […] Data are presented as average difference of signal intensity between match and mismatch probesets.
In Table 3 below, CNCM I-2546 and CNCM I-2545 cell lines cultured for 48 hours in the absence or in the presence of 100 U/ml IFN-α were used to identify novel cytokine induced genes whose expression was not found to be modulated in fibrosarcoma cells. Cluster 1 includes genes inducible in the CNCM I-2546 sensitive but not in the CNCM I-2545 resistant cell line. Cluster 2 comprises genes inducible in both lines. Data are presented as average difference of signal intensity between match and mismatch probesets.

[1] = CNCM I-2546, IFN-α 100 U/ml 48 hours

IFN-α
change factor (CF) D28137 bst-2 [1]: 9.89 | change factor (CF) D32050 alanyl-trna synthetase [1]: 19.33 | change factor (CF) D49824 hla-b null allele [1]: 5.42 | change factor (CF) D50914 EST [1]: 2.26 | change factor (CF) D78132 rheb gene, ras-related gtp binding protein gene [1]: 1.58 | change factor (CF) HG658 major histocompatibility complex, class 1 c [1]: 9.85 | change factor (CF) HG1612 macmarcks [1]: 2.59 | change factor (CF) HG2917 major histocompatibility complex, class i, e [1]: 4.53 | change factor (CF) J00105 beta-2 microglobulin gene [1]: 4.86 | change factor (CF) J00212 leukocyte interferon (ifn-alpha) [1]: −1.82 | change factor (CF) J03909 gamma-interferon-inducible protein (ip-30) [1]: 1.85 | change factor (CF) J04164 interferon-inducible protein 27-sep [1]: 102.3 | change factor (CF) J04182 lysosomal membrane glycoprotein-1 (lamp1) [1]: 1.69 | change factor (CF) J04444 cytochrome c-1 gene [1]: 3.16 | change factor (CF) K01900 lymphocyte interferon alpha type 201 [1]: 0.55 | change factor (CF) K03515 neuroleukin [1]: 3.37 | change factor (CF) L07633 interferon-gamma [1]: 1.52 | change factor (CF) L13210 mac-2 binding protein [1]: 3.54 | change factor (CF) L35249 vacuolar h + -atpase mr 56,000 subunit (ho57) [1]: 1.47 | change factor (CF) L37043 casein kinase i epsilon [1]: 21.05 | change factor (CF) L40387 thyroid receptor interactor (trip14) [1]: 3.25 | change factor (CF) L42243 ifnar2 gene (interferon receptor) [1]: −1.3 | change factor (CF) M13755 interferon-induced 17-kda/15-kda protein [1]: 34.8 | change factor (CF) M19650 2′,3′-cyclic nucleotide 3prime-phosphodiesterase [1]: 3.89 | change factor (CF) M30818 interferon-induced cellular resistance mediator protein [1]: −3.88 | change factor (CF) M31013 nonmuscle myosin heavy chain (nmhc) [1]: 2.34 | change factor (CF) M34338 spermidine synthase [1]: 2.29 | change factor (CF) M60784 ul snrnp-specific protein [1]: 8 | change factor (CF) M65028 heterogeneous nuclear ribonucleoprotein a/b [1]: 1.13 | change factor (CF) M79462 pml-1 [1]: −1.15 | change factor (CF) M92642 alpha-1 type xvi collagen (col16a1) [1]: 0 | change factor (CF) M94880 mhc class i (hla-a*8001) [1]: 3.61 | change factor (CF) M97935 transcription factor isgf-3 [1]: 13.8 | change factor (CF) M98343 amplaxin (ems1) [1]: 6.05 | change factor (CF) S81914 iex-1 = radiation-inducible immediate-early gene [1]: 9.06 | change factor (CF) U01824 glutamate/aspartate transporter [1]: 3.55 | change factor (CF) U09579 melanoma differentiation associated (mda-6) [1]: 3.35 | change factor (CF) U18009 chromosome 17q21 clone lf113 [1]: 2.93 | change factor (CF) U18018 ela enhancer binding protein (ela-f) [1]: 2.18 | change factor (CF) U22970 16-jun gene, interferon-inducible peptide (6-16) [1]: 53.95 | change factor (CF) U41515 dss1 [1]: −1.04 | change factor (CF) U47025 fetal brain glycogen phosphorylase b [1]: 3.79 | change factor (CF) U50327 protein kinase c substrate 80k-h gene (prkcsh) [1]: 2.9 | change factor (CF) U50648 interferon-inducible rna-dependent protein kinase (pkr) [1]: 2.55 | change factor (CF) U51127 interferon regulatory factor 5 [1]: 4.8 | change factor (CF) U52513 rig-g [1]: 0.96 | change factor (CF) U53830 interferon regulatory factor 7a [1]: 10.85 | change factor (CF) U61263 acetolactate synthase homolog [1]: 2.09 | change factor (CF) U65579 mitochondrial nadh dehydrogenase-ubiquinone [1]: 2.43 | change factor (CF) U65932 extracellular matrix protein 1 (ecm1) [1]: 2.02 | change factor (CF) U69126 fuse binding protein 2 (fbp2) [1]: 2.92 | change factor (CF) U70063 human acid ceramidase [1]: 1.57 | change factor (CF) U72206 guanine nucleotide regulatory factor (lfp40) [1]: 3.06 | change factor (CF) U72882 interferon-induced leucine zipper protein (ifp35) [1]: 24.1 | change factor (CF) U78525 human eukaryotic translation initiation factor (eif3) [1]: 1.14 | change factor (CF) U91316 acyl-coa thioester hydrolase [1]: 4.01 | change factor (CF) X04412 plasma gelsolin [1]: 2.48 | change factor (CF) X07730 prostate specific antigen [1]: 5.6 | change factor (CF) X15949 interferon regulatory factor-2 (irf-2) [1]: −2.35 | change factor (CF) X57351 1-8d gene from interferon-inducible gene family [1]: 113.8 | change factor (CF) X57522 ring4 cdna [1]: 3.85 | change factor (CF) X67325 p27 [1]: 19.5 | change factor (CF) X70848 protein phosphatase 1, catalytic subunit [1]: 2.03 | change factor (CF) X76538 mpv17 [1]: 3.06 | change factor (CF) X90846 mixed lineage kinase 2 [1]: −1.46 | change factor (CF) X95325 dna binding protein a variant [1]: 5.47 | change factor (CF) X96401 rox protein [1]: 3.21 | change factor (CF) Y00264 amyloid a4 precursor [1]: 2.42 | change factor (CF) Z26491 gene catechol o-methyltransferase [1]: 3.62 | change factor (CF) Z47055 farnesyl pyrophosphate synthetase like [1]: 1.01 | change factor (CF) Z56281 interferon regulatory factor 3 [1]: 5.8 | nAD D28137 bst-2 (Table 3, CNCM I-2546 (+) IFN-α 100 U/ml 48 hours, (−) 28): 305 | change factor (CF) D28137 bst-2 (Table 3, CNCM I-2546, IFN-α 100 U/ml 48 hours): 9.89

— US20030096237A1, “Determination of the ability of patients to respond to a tumor treatment” (priority 2000, published 2003)
